{
  "source": "patent US20160263258A1",
  "about": "“Radiotracer introduced [18F]fluoromethyl group targeting neuroinflammation for PET imaging and Synthesis of Radiotracer and its biological evaluation Method for Radiotracer” (Bio Imaging Korea Co., Ltd., priority 2013, published 2016)",
  "key": {"[1]": {"tested_on": "LPS-induced brain neuroinflammation rat model", "assay": "PET imaging in LPS-induced brain neuroinflammation rat model", "assay_type": "in vivo", "details": "for time of uptake (faster uptake): PET time-activity, after injection; for accumulation in LPS-injected inflammatory region versus contralateral region: PET, tail vein injection, 4 days after LPS", "experimental": "(§1) To construct a neuroinflammation rat model, male Sprague-Dawley rats with a weight of 200-250 g were used. Each of the rats was anesthetized, and the cranium was exposed and then drilled with a bone drill to form a small hole. Thereafter, 50 μg of LPS (lipopolysaccharide) was injected into the rat body by a Hamilton syringe at a flow rate of […] (AP, 0.8 mm; L, −2.7 mm; and P, −5.0 mm from the bregma). LPS was maintained for 10 minutes to prevent LPS from flowing backward in the Hamilton syringe, and then the small hole of the cranium was filled with wax and the incised scalp was closed.\nAt 4 days after LPS injection into five rats (227.98±3.8 g), positron emission tomography (PET) images were acquired. The rats were subjected to PET imaging for 120 minutes after injection of [^11C]PBR28 or the [^18F]fluoromethyl group-introduced radiotracer into the tail vein of the neuroinflammation model. First, a [^11C]PBR28 image was acquired from the neuroinflammation model, and after six-half lives ([…]) when the remaining radioactivity disappeared, an image of the [^18F]fluoromethyl group-introduced radiotracer was acquired."}, "[2]": {"details": "pH 7.4", "protocol": "For the measurement of lipophilicity, each of the [^18F]fluoromethyl group-introduced radiotracer and [^11C]PBR28 (about 0.74 MBq) in 5% ethanol/saline was added to and mixed with n-octanol (5 mL) and sodium phosphate buffer (5.0 mL, 0.15 M, pH 7.4), and then lipophilicity was measured four times. The radioactivity of the sample (100 μL) in each sample was measured, and the lipophilicity was calculated as the ratio of counts per minute to sodium phosphate buffer and n-octanol."}, "[3]": {"details": "according to previous studies; cited from earlier work"}, "TSPO": {"molecular_target": "T1, TSPO (Rattus norvegicus, UniProt P16257)", "T1 construct": "from tissue; host or cells: brain of living LPS-injected Sprague-Dawley rats (PET imaging)", "assay": "Selective/specific PET imaging: inhibition image by co-injection with the radiotracer", "assay_type": "in vivo", "experimental": "as §1"}, "[4]": {"details": "background art; cited from earlier work"}, "[5]": {"assay": "Metabolism of radiotracer in brain of neuroinflammation model rats (HPLC)", "assay_type": "in vivo, rat", "experimental": "The [^18F]fluoromethyl group-introduced radiotracer (about 37 MBq, 5% ethanol/saline) was injected into the vein of the neuroinflammation model rats through the tail vein. After 30 and 60 minutes, the rats were sacrificed, and brain samples were collected therefrom, after which the metabolism of the fluorine-18-labeled radiotracer was measured by HPLC. As a result, the amount of the [^18F]fluoromethyl group-introduced radiotracer in the rat brain was 97.3% 30 minutes after injection and 96.8% 60 minutes after injection. Other radioactive metabolites, excluding 2-3% fluorine-18, were not observed in HPLC up to 60 minutes after injection. In contrast, according to previous studies, it is known that, in the case of [^11C]PBR28, radioactive metabolites exist in an amount of about 10-15%, thereby giving false images."}},
  "data": [
    {"smiles": "CC(=O)N(Cc1ccccc1O[11CH3])c1ccc(Oc2ccccc2)nc1", "note": "[[^11C]PBR28, N-acetyl-N-(2-[^11C]methoxybenzyl)-2-phenoxy-5-pyridinamine]", "values": [
      {"measurement": "time of uptake (faster uptake)", "setting": "[1]", "value": 20, "unit": "min"},
      {"measurement": "accumulation in LPS-injected inflammatory region versus contralateral region", "setting": "[1]", "value": "more selectively accumulated in the LPS-injected inflammatory region than the contralateral region"},
      {"measurement": "inflammatory region/contralateral region ratio", "setting": "[1]; at 90 min", "value": 3.4, "unit": "times"},
      {"measurement": "lipophilicity", "setting": "[2]", "value": "3.01±0.01"},
      {"measurement": "radioactive metabolites, amount", "setting": "[3]", "value": "10-15%"}
    ]},
    {"smiles": "CCC(C)N(C)C(=O)c1cc2ccccc2c(-c2ccccc2Cl)n1", "note": "(stereo not drawn) [PK11195]", "values": [
      {"measurement": "inhibition of radiotracer uptake in the inflammatory region", "setting": "TSPO; 10 mg/kg injected simultaneously with the [18F] radiotracer", "value": "about 66%"}
    ]},
    {"smiles": "COc1ccc(OC)c(CN(C(C)=O)c2cc(F)ccc2Oc2ccccc2)c1", "note": "[[^11C]DAA1106]", "values": [
      {"measurement": "uptake relative to [11C]-(R)-PK11195", "setting": "[4]", "value": "at least 4 times"}
    ]},
    {"smiles": "CCOC(=O)c1ncn2c1CN(C)C(=O)c1cc(F)ccc1-2", "note": "[Flumazenil]", "values": [
      {"measurement": "influence on uptake of the fluorine-18-labeled radiotracer in the inflammatory region", "setting": "TSPO; 5 mg/kg injected simultaneously with the [18F] radiotracer, CBR ligand", "value": "did not influence the uptake"}
    ]},
    {"smiles": "CC(=O)N(Cc1ccccc1OC[18F])c1cnccc1Oc1ccccc1", "note": "[N-(2-[^18F]fluoromethoxybenzyl)-N-(4-phenoxypyridin-3-yl)acetamide]", "values": [
      {"measurement": "time of uptake (faster uptake)", "setting": "[1]", "value": 4.5, "unit": "min"},
      {"measurement": "accumulation in LPS-injected inflammatory region versus contralateral region", "setting": "[1]", "value": "more selectively accumulated in the LPS-injected inflammatory region than the contralateral region"},
      {"measurement": "uptake, times higher", "setting": "[1]; for about 2 hours, p=0.009", "value": "at least 3.0 times"},
      {"measurement": "lipophilicity", "setting": "[2]", "value": "2.85±0.02"},
      {"measurement": "amount of radiotracer in the rat brain", "setting": "[5]; 30 minutes after injection", "value": 97.3, "unit": "%"},
      {"measurement": "amount of radiotracer in the rat brain", "setting": "[5]; 60 minutes after injection", "value": 96.8, "unit": "%"},
      {"measurement": "fluorine-18 (radioactive metabolite) in brain", "setting": "[5]; up to 60 minutes after injection", "value": "2-3%"}
    ]}
  ]
}
